We go through 20 compounds from US11518758B2, “Heteroarylaminopyrimidine amide autophagy inhibitors and methods of use thereof” (Deciphera Pharmaceuticals, LLC, priority 2019, dated 2022).

For one assay, the target named is T1, ULK1 kinase (Homo sapiens, UniProt O75385).
T1 construct: purchased Eurofins 14-959
T1 sequence (O75385 with tags, fused parts or gaps): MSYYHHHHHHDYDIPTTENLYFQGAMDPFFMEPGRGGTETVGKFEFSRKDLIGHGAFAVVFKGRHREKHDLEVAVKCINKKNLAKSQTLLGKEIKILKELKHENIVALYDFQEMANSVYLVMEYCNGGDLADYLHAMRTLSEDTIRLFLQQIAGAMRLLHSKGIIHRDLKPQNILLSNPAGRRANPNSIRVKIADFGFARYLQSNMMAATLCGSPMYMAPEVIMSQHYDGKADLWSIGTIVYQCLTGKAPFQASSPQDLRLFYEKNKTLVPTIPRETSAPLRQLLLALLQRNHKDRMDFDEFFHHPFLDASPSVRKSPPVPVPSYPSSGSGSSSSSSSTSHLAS
Put plainly: Biochemical assay for ULK1.2 (coupled pyruvate kinase/lactate dehydrogenase assay). As to conditions: 19 nM ULK1 (Eurofins), myelin basic protein, 1 mM ATP. In a few lines: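 NADH-coupled PK/LDH read-out at 340 nm, run with 19 nM ULK1, 0.25 mg/mL myelin basic protein and 1 mM ATP. Buffer was 100 mM Tris pH 7.5 with 15 mM MgCl2 and 1% DMSO final. Monitoring was continuous for 6 hours at 30° C; rates from the 2-3 h window were converted to percent inhibition and fitted to a four-parameter curve for IC50.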

In another assay the target is T2, ULK2 kinase (Homo sapiens, UniProt Q8IYT8).
T2 construct: purchased Eurofins 14-772
Description: Biochemical assay for ULK2 (coupled pyruvate kinase/lactate dehydrogenase assay). Particulars: 9.7 nM ULK2 (Eurofins), myelin basic protein, 1 mM ATP; read-out: ULK2.2. In a few lines:
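Continuous PK/LDH-coupled NADH-oxidation assay with 9.7 nM ULK2, 0.25 mg/mL myelin basic protein and 1 mM ATP in Tris pH 7.5, MgCl2, DTT buffer, 1% DMSO. A340 followed 6 h at 30° C; rates from 2-3 h window converted to % inhibition, IC50 from four-parameter fit.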

For assay [1], the system named is phospho-Serine 318 ATG13 (pATG13) in A375 cells. Put plainly: pATG13 levels of mutant BRAF A375 cells after treatment with ULK inhibitors in combination with trametinib (ELISA). Format: cell-based, human. Here is the method: Example 180. pATG13 Levels of Mutant BRAF A375 Cells after Treatment with ULK Inhibitors in Combination with Trametinib
A375 human malignant melanoma cancer cells (20000 cells/well) were added to a 96-well tissue-culture treated plate in 100 μL of pre-warmed DMEM medium supplemented with 10% characterized fetal bovine serum (Invitrogen, Carlsbad, Calif.), 100 units/mL penicillin G, and 100 μg/mL streptomycin and allowed to grow overnight at 37° C., 5% CO2, and 95% humidity. The following day, 100 μL of media containing trametinib or DMSO as a control was added to wells. The final concentration of trametinib in wells was 250 nM. A dose response of a test compound (0.5 μL per well) was added. DMSO (0.5 μL) was added to control wells. The plate was briefly shaken to mix wells and then incubated at 37° C. overnight. The next day, the media was aspirated and cells were washed with Dulbecco's Phosphate Buffered Saline (Gibco). Cells were lysed using MPER lysis buffer (Pierce, Rockford, Ill.) containing Halt Phosphatase and Protease Inhibitors (Pierce, Rockford, Ill.) and Phosphatase inhibitor cocktail 2 (Sigma, St. Louis, Mo.) at 4° C. for 10 minutes with shaking.
Cellular levels of phospho-Serine 318 ATG13 (pATG13) were measured via an ELISA method. Total ATG13 Antibody (Cell Signaling Cat #13273) was used to coat the wells. The plate was incubated at 4° C. overnight and washed with ELISA wash buffer (Biolegend Cat #421601). The wells were then blocked with assay diluent (Biolegend Cat #421203) for 1 hour at room temperature. Plate wells were washed with ELISA wash buffer. Cell lysate was added to wells and incubated at room temperature for 2 hours. Plate wells were washed with ELISA wash buffer. Biotinylated pS318-ATG13 antibody (Rockland Immunochemicals Cat #600-401-C49) was diluted in assay diluent and added to each well and incubated at room temperature for 1 hour. Plate wells were washed with ELISA wash buffer. Streptavidin linked to horseradish peroxidase (Thermo Fisher Cat #21140) was diluted in assay diluent and added to each well and incubated at room temperature for 1 hour. Plate wells were washed with ELISA wash buffer. High sensitivity TMB substrate (Biolegend Cat #421101) was added to each well and incubated at room temperature for 20 minutes. The reaction was stopped with 2N Sulfuric Acid. The plate was analyzed at on a plate reader measuring absorbance at 450 nm and 540 nm (background). Signal was calculated by first subtracting the background absorbance at 540 nm from the absorbance at 450 nm for each well. Next, the background corrected absorbance at 450 nm from blank wells was subtracted from test wells. Data was compared to control wells to determine % ATG13 phosphorylation. GraphPad Prism was used to calculate IC50 values.

T2 sequence (Q8IYT8 with tags, fused parts or gaps): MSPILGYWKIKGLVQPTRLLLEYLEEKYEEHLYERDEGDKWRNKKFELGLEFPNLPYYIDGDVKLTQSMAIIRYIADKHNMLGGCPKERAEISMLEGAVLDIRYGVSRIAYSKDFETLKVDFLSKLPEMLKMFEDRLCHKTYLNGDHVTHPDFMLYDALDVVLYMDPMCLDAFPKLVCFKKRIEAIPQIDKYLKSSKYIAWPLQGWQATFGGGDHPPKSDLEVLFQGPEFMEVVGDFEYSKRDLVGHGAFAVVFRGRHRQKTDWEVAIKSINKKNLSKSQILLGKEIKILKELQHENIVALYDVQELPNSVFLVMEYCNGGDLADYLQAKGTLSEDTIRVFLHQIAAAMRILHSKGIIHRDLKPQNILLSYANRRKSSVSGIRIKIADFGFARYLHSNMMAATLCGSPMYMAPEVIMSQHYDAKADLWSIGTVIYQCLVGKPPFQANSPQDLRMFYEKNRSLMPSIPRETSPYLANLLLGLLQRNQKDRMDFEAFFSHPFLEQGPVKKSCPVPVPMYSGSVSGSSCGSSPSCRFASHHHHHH

Regarding `Cc1nn([C@@H]2CCN(C)C2)cc1Nc1ncc(C(F)(F)F)c(NCCCN2CCCOCC2=O)n1` [Example 106], the IC50 against ULK1 kinase lay within 25 to 100 nM; on ULK2 kinase it was 100 to 500 nM.

For the compound `Cc1nn(C2CCN(C)CC2)cc1Nc1ncc(C(F)(F)F)c(NCCCN2CCCCCC2=O)n1` [Example 79], the IC50 on ULK1 kinase and at ULK2 kinase was 1 to 25 nM throughout.

Take `Cc1nn(C2CCN(C)CC2)cc1Nc1ncc(C(F)(F)F)c(NCCCN2CCCCC2=O)n1` [Example 8]: the IC50 lay within 1 to 25 nM at ULK1 kinase, 25 to 100 nM on ULK2 kinase and 10 to 100 nM in assay [1].

As for `Cc1nn(C2CCN(C)CC2)cc1Nc1ncc(Cl)c(NCCCN2CCCOCC2=O)n1` [Example 105], the IC50 against ULK1 kinase was 25 to 100 nM; on ULK2 kinase, > 500 nM.

For the compound `Cc1nn(C2CCN(C)CC2)cc1Nc1ncc(C(F)(F)F)c(NCCCN2CCOCCC2=O)n1` [Example 127], the IC50 at ULK1 kinase lay in the range of 1 to 25 nM; on ULK2 kinase, 100 to 500 nM; in assay [1] it was 10 to 100 nM.

As to `Cc1nn(C2CCN(C(C)C)CC2)cc1Nc1ncc(C(F)(F)F)c(NCCCN2CCCOCC2=O)n1` [Example 108], the IC50 against ULK1 kinase was 25 to 100 nM; at ULK2 kinase, > 500 nM.

Regarding `Cc1nn(C2CCN(C(C)C)CC2)cc1Nc1ncc(C(F)(F)F)c(NCCCN2CCOCCC2=O)n1` [Example 131], the results for the IC50 at ULK1 kinase and at ULK2 kinase were 25 to 100 nM and > 500 nM, respectively.

Consider `Cc1nn([C@@H]2CCN(C)C2)cc1Nc1ncc(C(F)(F)F)c(NCCCN2CCCCC2=O)n1` [Example 18], for which the IC50 against ULK1 kinase lay within 1 to 25 nM; at ULK2 kinase, 25 to 100 nM; in assay [1], 10 to 100 nM.

On to `Cc1nn(C2CCN(C(C)C)CC2)cc1Nc1ncc(C(F)(F)F)c(NCCCN2CCCOC2=O)n1` [Example 68], for which the IC50 lay in the range of 25 to 100 nM against ULK1 kinase, 100 to 500 nM on ULK2 kinase and 100 to 300 nM in assay [1].

For the compound `CCN1CCC(n2cc(Nc3ncc(C(F)(F)F)c(NCCCN4CCCOCC4=O)n3)c(C)n2)CC1` [Example 107], the figures for the IC50 against ULK1 kinase and at ULK2 kinase were 25 to 100 nM and 100 to 500 nM, respectively.

For `Cc1nn(C2CCN(C(C)C)CC2)cc1Nc1ncc(C(F)(F)F)c(NCCCN2CCCCC2=O)n1` [Example 15], the IC50 on ULK1 kinase was 25 to 100 nM; on ULK2 kinase, 100 to 500 nM; in assay [1], 10 to 100 nM.

Regarding `CCc1nn(C2CCN(C)CC2)cc1Nc1ncc(Br)c(NCCCN2CCCCC2=O)n1` [Example 53], the IC50 against ULK1 kinase lay in the range of 25 to 100 nM; at ULK2 kinase, 100 to 500 nM; in assay [1] it was 100 to 300 nM.

On to `CN(C)CCn1cc(Nc2ncc(C(F)(F)F)c(NCCCN3CCCCC3=O)n2)cn1` [Example 32], for which the IC50 was in the range of 25 to 100 nM against ULK1 kinase and 100 to 500 nM at ULK2 kinase.

For the compound `CC(C)N1CCC(n2cc(Nc3ncc(C(F)(F)F)c(NCCCN4CCCCC4=O)n3)cn2)CC1` [Example 6], the values for the IC50 against ULK1 kinase and at ULK2 kinase were 1 to 25 nM and 25 to 100 nM, respectively.

For the compound `Cc1nn(CCCN2CCOCC2)cc1Nc1ncc(C(F)(F)F)c(NCCCN2CCCCCC2=O)n1` [Example 100], the IC50 on ULK1 kinase is 25 to 100 nM; at ULK2 kinase it was 100 to 500 nM.

`Cc1nn(CCN(C)C)cc1Nc1ncc(C(F)(F)F)c(NCCCN2CCCCC2=O)n1` [Example 21]: the IC50 at ULK1 kinase was in the range of 25 to 100 nM; at ULK2 kinase, 100 to 500 nM.

For `CCN1CCC(n2cc(Nc3ncc(C(F)(F)F)c(NCCCN4CCOCCC4=O)n3)c(C)n2)CC1` [Example 130], the IC50 lay within 25 to 100 nM against ULK1 kinase and 100 to 500 nM at ULK2 kinase.

For `Cc1nn([C@H]2CCN(C)C2)cc1Nc1ncc(Br)c(NCCCN2CCCCC2=O)n1` [Example 61], the IC50 on ULK1 kinase is 25 to 100 nM; at ULK2 kinase, 100 to 500 nM; in assay [1], 10 to 100 nM.

For `Cc1nn(C2CCN(C)CC2)cc1Nc1ncc(C(F)(F)F)c(NCCCN2CCCOCC2=O)n1` [Example 102], the figures for the IC50 against ULK1 kinase and at ULK2 kinase were 1 to 25 nM and 25 to 100 nM, respectively.

Consider `CCN1CC[C@H](n2cc(Nc3ncc(Br)c(NCCCN4CCCCC4=O)n3)c(C)n2)C1` [Example 64], for which the values for the IC50 at ULK1 kinase and at ULK2 kinase were 25 to 100 nM and > 500 nM, respectively.
